Measured values taken from PubChem BioAssay (NCI).
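Five concentrations, 48 hours, 96-well plates. The concentration for 50% growth inhibition is given as GI50. TGI marks complete inhibition of growth.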

Tests used:
Test in all cases: NCI-60 cell line screen, 48 h
[1] = test system: MOLT-4 leukemia
[2] = test system: HL-60(TB) leukemia
[3] = test system: EKVX NSCLC
[4] = test system: HT29 colon
[5] = test system: HOP-62 NSCLC
[6] = test system: OVCAR-3 ovarian
[7] = test system: K-562 leukemia
[8] = test system: IGROV1 ovarian
[9] = test system: OVCAR-8 ovarian
[10] = test system: T-47D breast
[11] = test system: MDA-MB-231 breast

## O=S(O)CCCSSSCCCS(=O)O
[1]
  TGI: > 100 µM
[2]
  TGI: > 100 µM
[3]
  TGI: > 100 µM
[4]
  TGI: > 100 µM
[5]
  TGI: > 100 µM
[6]
  TGI: > 100 µM
[7]
  TGI: > 100 µM

## CN(C)c1cccc(OC(=O)NCCCl)c1
[1]
  TGI: > 100 µM
[2]
  TGI: > 100 µM
[3]
  TGI: > 100 µM
[4]
  TGI: > 100 µM
[5]
  TGI: > 100 µM
[8]
  TGI: > 100 µM
[6]
  TGI: > 100 µM
[7]
  TGI: > 100 µM
[9]
  TGI: > 100 µM

## c1csc(-c2ccc(CNc3c4ccccc4nc4ccccc34)cc2)c1
[1]
  GI50: 1.32 µM
  TGI: 3.74 µM
[10]
  GI50: 13.6 µM
  TGI: 55.6 µM
[2]
  GI50: 1.45 µM
  TGI: 3.28 µM
[5]
  GI50: 6.29 µM
  TGI: 38.4 µM
[6]
  GI50: 1.58 µM
  TGI: 2.97 µM

## COC(=O)c1sc2c(c1C(=O)OC)C(=NC(C)(C)C)SC2=NC(C)(C)C
[1]
  TGI: 31.8 µM
[10]
  TGI: 31.4 µM
[11]
  TGI: 37.3 µM
[2]
  TGI: 28.6 µM
[3]
  TGI: 34.7 µM
[4]
  TGI: 37.6 µM
[5]
  TGI: 39 µM
[8]
  TGI: 36.2 µM
[6]
  TGI: 36.9 µM
[7]
  TGI: 43.3 µM
[9]
  TGI: 42.3 µM

## c1ccc2c(c1)SCCc1cn[nH]c1-2
[1]
  TGI: > 100 µM
[2]
  TGI: > 100 µM
[3]
  TGI: > 100 µM
[4]
  TGI: > 100 µM
[5]
  TGI: > 100 µM
[8]
  TGI: > 100 µM
[6]
  TGI: > 100 µM
[7]
  TGI: > 100 µM
[9]
  TGI: > 100 µM

## Nc1ccc(Cn2ccc3c4c(N)nc(N)nc4ccc32)cc1
[1]
  TGI: > 51.7 µM
[10]
  TGI: 6.18 µM
[11]
  TGI: 3.48 µM
[2]
  TGI: 1.37 µM
[3]
  TGI: 23.1 µM
[4]
  TGI: 2.18 µM
[5]
  TGI: 5.09 µM
[8]
  TGI: 18.7 µM
[6]
  TGI: 2.51 µM
[7]
  TGI: 2.44 µM
[9]
  TGI: 22 µM

## N#C/C(=C\c1ccc([N+](=O)[O-])o1)c1n[nH]c(Cc2ccccc2)n1
[1]
  TGI: > 100 µM
[10]
  TGI: 4.2 µM
[11]
  TGI: 5 µM
[2]
  TGI: 6.83 µM
[3]
  TGI: 8.31 µM
[4]
  TGI: 2.83 µM
[5]
  TGI: 5.92 µM
[8]
  TGI: 3.11 µM
[6]
  TGI: 3.01 µM
[7]
  TGI: > 22.3 µM
[9]
  TGI: > 25.1 µM

## COCCNCc1ccc(-c2cc3nccc(Oc4ccc(NC(=O)C5(C(=O)Nc6ccc(F)cc6)CC5)cc4F)c3s2)nc1
[1]
  GI50: 1.46 µM
  TGI: 4.26 µM
[10]
  GI50: 2.01 µM
  TGI: 6.29 µM
[2]
  GI50: 2.29 µM
  TGI: 5.12 µM
[4]
  GI50: 0.912 µM
  TGI: 2.89 µM
[5]
  GI50: 1.57 µM
  TGI: 3.43 µM
[6]
  GI50: 2.2 µM
  TGI: 4.82 µM
[7]
  GI50: 0.252 µM
  TGI: 1.83 µM
[9]
  GI50: 2.11 µM
  TGI: 5.13 µM

## S=c1[nH]n2c(COc3ccc(Cl)cc3)nnc2s1
[1]
  TGI: > 100 µM
[10]
  TGI: > 100 µM
[11]
  TGI: > 100 µM
[2]
  TGI: > 100 µM
[3]
  TGI: > 100 µM
[4]
  TGI: > 100 µM
[5]
  TGI: > 100 µM
[8]
  TGI: > 100 µM
[6]
  TGI: > 100 µM
[7]
  TGI: > 100 µM
[9]
  TGI: > 100 µM

## O=C1C(c2c(O)[nH]c3ccc(Cl)cc23)=Nc2ccccc21
[1]
  TGI: > 100 µM
[10]
  TGI: > 100 µM
[11]
  TGI: 6.9 µM
[2]
  TGI: > 100 µM
[3]
  TGI: > 53.1 µM
[4]
  TGI: > 100 µM
[5]
  TGI: 38 µM
[8]
  TGI: 19.3 µM
[6]
  TGI: 17.9 µM
[7]
  TGI: > 100 µM
[9]
  TGI: 21.9 µM

## NNC(=O)CCc1ccc2ccc3ccccc3c2c1
[1]
  TGI: > 100 µM
[10]
  TGI: > 100 µM
[11]
  TGI: > 100 µM
[2]
  TGI: > 100 µM
[3]
  TGI: 97.9 µM
[4]
  TGI: > 100 µM
[5]
  TGI: > 100 µM
[8]
  TGI: > 100 µM
[6]
  TGI: > 100 µM
[7]
  TGI: > 100 µM
[9]
  TGI: > 100 µM
